Data as given in US20160052936A1, “SPIROINDOLINE DERIVATIVES FOR USE AS GONADOTROPIN-RELEASING HORMONE RECEPTOR ANTAGONISTS” (BAYER PHARMA AKTIENGESELLSCHAFT, priority 2013, published 2016).
Non-standard residues stand in square brackets, D forms with d. Residues, ends and D or L forms follow the SMILES beside them. dPhe(4-Cl) = N[C@H](Cc1ccc(Cl)cc1)C(=O)O; d2Nal = N[C@H](Cc1ccc2ccccc2c1)C(=O)O; dCit = NC(=O)NCCC[C@@H](N)C(=O)O; d3Pal = N[C@H](Cc1cccnc1)C(=O)O

How the values were obtained:
human GnRH receptor = target: T1, human GnRH receptor (Homo sapiens, UniProt P30968); experiment: IP-One HTRF assay with buserelin stimulation; assay type: cell-based; conditions: CHO cells stably expressing human GnRH receptor; buserelin at EC80; read-out: Potency in IP-One HTRF assay with buserelin (at EC80) stimulation, given as IC50
T1 construct: host or cells: CHO cells stably expressing human GnRH receptor (line established by Prof. Thomas Gudermann)
T1 sequence (P30968 1-328): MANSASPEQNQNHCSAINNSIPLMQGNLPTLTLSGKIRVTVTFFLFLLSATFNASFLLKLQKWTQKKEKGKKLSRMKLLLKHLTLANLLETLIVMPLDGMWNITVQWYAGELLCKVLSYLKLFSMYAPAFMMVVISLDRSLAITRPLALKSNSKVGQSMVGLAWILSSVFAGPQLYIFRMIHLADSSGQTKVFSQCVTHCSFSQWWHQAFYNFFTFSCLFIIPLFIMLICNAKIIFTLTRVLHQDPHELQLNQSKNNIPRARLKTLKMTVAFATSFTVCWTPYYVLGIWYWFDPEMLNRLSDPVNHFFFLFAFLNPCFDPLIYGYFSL
Excerpt: By using homogenous time-resolved fluorescence resonance energy transfer (HTRF), the generation of one component of the GnRH-R signalling cascade can be measured. After stimulation of CHO cells stably expressing human GnRH receptor (established by Prof. Thomas Gudermann, currently University of Marburg, Germany; supplied as frozen cell aliquots by Cell Culture Services, Hamburg, Germany) with the EC80 of the GnRH agonist buserelin, Gq protein-coupled receptor signalling cascade is activated resulting in PLC-dependent cleavage of PIP2 to Inositol-1,4,5-triphosphate (IP3) and Diacylglycerol. The second messenger IP3 is degraded intracellularly to myo-inositol. Inhibition of the final degradation step from Inositol-1-phosphate (IP1) to myo-inositol by addition of lithium chloride leads to accumulation of IP1 in the cells. In cell lysates, IP1 can be detected via an antibody-based HTRF detection technology, where IP1 can displace the FRET acceptor IP1-d2 from binding by Terbium-labelled anti-IP1 antibody as donor resulting in a signal decrease. Compounds were tested for their capability of inhibiting GnRH-R activation by buserelin. For all IP-One HTRF® assays reagents of Cisbio Bioassays (IP-One Tb Jumbo kit, #62IPAPEJ; Cisbio Bioassays, Bagnols sur Cèze Cedex, France) were used.
For the assay, frozen cell aliquots were thawed and a cell suspension (3.33×10^6 cells/mL) containing IP1-d2 (dilution 1:40) was prepared and incubated at 37° C. After 1 h 3 μl of the cell suspension were added to 50 nl of a 100-fold concentrated solution of the test compound in DMSO pre-dispensed in a well of a white low-volume 384-well microtiter plate (Greiner Bio-One, Frickenhausen, Germany). […] Plates were incubated for 1 h at 37° C. and 5% carbon dioxide before the cells were lysed by adding 3 μl Terbium-labelled anti-IP1 antibody (1:40) diluted in Conjugate & Lysis buffer as supplied with the kit. After an incubation for 1 h at 22° C. to enable complete cell lysis and antibody binding to free IP1 or IP1-d2, plates were measured in an HTRF reader, e.g. a RUBYstar, PHERAstar (both BMG Labtechnologies, Offenburg, Germany) or a Viewlux (PerkinElmer LAS, Rodgau-Jügesheim, Germany).
From the fluorescence emissions at 665 nm (FRET) and at 620 nm (background signal of Terbium-antibody), the ratio (emission at 665 nm divided by emission at 620 nm) was calculated and the data were normalized (reaction without test compound=0% inhibition; all other assay components except agonist=100% inhibition). On the same microtiter plate, compounds were tested at 10 different concentrations in the range of 20 μM to 1 nM (20 μM, 6.7 μM, 2.2 μM, 0.74 μM, 0.25 μM, 82 nM, 27 nM, 9.2 nM, 3.1 nM and 1 nM; dilution series prepared before the assay at the level of the 100-fold conc. stock solutions by serial 1:3 dilutions in 100% DMSO) in duplicate values for each concentration. By using an in-house software, the IC50 values were calculated by a 4 parameter fit.
Within the meaning of the present invention the antagonist activity is reflected by the ability of a compound of the invention to antagonize human GnRH receptor stimulation in IP-One HTRF® assay at least three times the standard deviation over the background level.

human GnRHR = target: T2, human GnRHR (Homo sapiens, UniProt P30968); experiment: Tag-Lite receptor binding assay; conditions: Hek293 cells transiently transfected with human GnRHR; displacement of green-labelled GnRHR binding peptide; read-out: Potency in receptor binding assay using TAG-LITE technology, given as IC50
T2 construct: own knowledge: Tag-lite cells usually carry an N-terminal SNAP-tag fusion; host or cells: Hek293 cells, transiently transfected, supplied frozen
T2 sequence (P30968 1-328): T1 sequence (P30968 1-328)
Excerpt: 2.2. Tag-Lite® Receptor Binding Assay
This binding assay is based on the fluorescence resonance energy transfer between fluorescence donor labelled human GnRHR and a green-labelled GnRHR binding peptide. Compounds interfering with the ligand binding side of the human GnRHR will replace the labelled peptide resulting in a signal decrease. The assay principle was established by Cisbio Bioassays (Bagnols-sur-Cèze Cedex, France) and further details are available on their homepage.
The assay procedure was further optimized for use in-house with reduced assay volumes. Frozen Hek293 cells, transiently transfected with human GnRHR and Terbium-labelling of the receptor, were supplied by Cisbio Bioassays as well as Tag-Lite buffer and green-labelled GnRHR binding peptide. Cells were thawed and transferred to cold Tag-Lite buffer. A volume of 8 μl of this cell suspension were added to 100 nl of a 160-fold concentrated solution of the test compound in DMSO pre-dispensed in a well of a white low-volume 384-well microtiter plate (Greiner Bio-One, Frickenhausen, Germany). The mixture was incubated for 5 min at room temperature. In the next step either 4 μl Tag-Lite buffer or as control 4 μl of an exceeding amount unlabelled binding peptide in Tag-Lite buffer were transferred to the mixture. The green-labelled GnRHR binding peptide was added in a final step at EC50 in a volume of 4 μl Tag-Lite buffer. After an incubation of 1 h at room temperature plates were measured in a microplate reader, e.g. a PHERAstar (BMG Labtechnologies, Offenburg, Germany) by using a specific optic module.
A ratio from the fluorescence emissions at 520 nm (green fluorescence) and at 490 nm (background signal of Terbium-labelled GnRHR) was calculated and the data were normalized (reaction without test compound=0% inhibition of binding of green-labelled peptide; reaction without test compound with exceeding amount unlabelled binding peptide=100% inhibition of binding of green-labelled peptide). On the same microtiter plate, compounds were tested at 10 different concentrations in the range of 12.5 μM to 0.64 nM (12.5 μM, 4.2 μM, 1.4 μM, 0.46 μM, 0.15 μM, 51 nM, 17 nM, 5.7 nM, 1.9 nM and 0.64 nM; dilution series prepared before the assay at the level of the 160-fold conc. stock solutions by serial 1:3 dilutions in 100% DMSO) in duplicate values for each concentration. By using an in-house software, the IC50 values were calculated by a 4 parameter fit.

[1] = test system: LH level in ovariectomized rats; experiment: LH suppression in the ovariectomized rat; assay type: in vivo; conditions: 0.1 mg/kg i.p., 8 hours
Excerpt: 2.5. LH Suppression in the Ovariectomized Rat
The in vivo potency of GnRH antagonists can be quantified by a LH suppression test in ovariectomized rats. GnRH triggers the LH release from the pituitary mediated by GnRH receptors. Ovarectomy of adult female rats results in elevated levels of circulating LH due to a lack of negative feedback by gonadal steroids. GnRH antagonists suppress the release of LH and accordingly suppression of LH levels can be used to quantify the in vivo potency of GnRH antagonists.
Female adult rats were ovariectomized surgically and they were allowed to recover for at least one week. The animals received 0.5 mg/kg, 3 mg/kg or 10 mg/kg of Example 3.1 by single per oral administration. For comparison reasons a vehicle control and a positive control, 0.1 mg/kg cetrorelix (i.p.), were given once. At 0 min, 15 min, 30 min, 1 hour, 2 hours, 4 hours, 8 hours and 24 hours after compound administration blood was taken from the retro orbital plexus (n=6 per blood withdrawal) for the measurement of serum LH and serum compound levels.
As nonbinding explanatory example of compounds according to the invention FIG. 1 represents the LH level following administration of the compound according to Example 3.1, to ovariectomized adult rats. [Filled circle: Vehicle; Circle, dotted black line: Cetrorelix (0.1 mg/kg); Triangle: Example 3.1 (0.5 mg/kg); Reverse triangle: Example 3.1 (3 mg/kg); Diamond: Example 3.1 (10 mg/kg)]. Values are given as mean+standard deviation (n=6).

| SMILES | IC50 (human GnRH receptor) | IC50 (human GnRHR) | LH suppression [1] |
| --- | --- | --- | --- |
| O=C(NCc1ncc(C(F)(F)F)cc1Cl)c1ccc2c(c1)C1(CCS(=O)(=O)CC1)C(C1CC1)N2S(=O)(=O)c1cccc(OC(F)F)c1 (racemic) [Example 14, N-{[3-chloro-5-(trifluoromethyl)pyridin-2-yl]methyl}-2-cyclopropyl-1-{[3-(difluoromethoxy)phenyl]sulfonyl}-1,2,2′,3′,5′,6′-hexahydrospiro[indole-3,4′-thiopyran]-5-carboxamide 1′,1′-dioxide] | 82 nM | 78.7 nM | – |
| N#Cc1ccc(S(=O)(=O)N2c3ccc(C(=O)NCc4ncc(C(F)(F)F)cc4Cl)cc3C3(CCS(=O)(=O)CC3)C2C2CC2)cc1 (racemic) [Example 8, N-{[3-chloro-5-(trifluoromethyl)pyridin-2-yl]methyl}-1-[(4-cyanophenyl)sulfonyl]-2-cyclopropyl-1,2,2′,3′,5′,6′-hexahydrospiro[indole-3,4′-thiopyran]-5-carboxamide 1′,1′-dioxide] | 22 nM | 21.7 nM | – |
| CC(=O)N[C@H](Cc1ccc2ccccc2c1)C(=O)N[C@H](Cc1ccc(Cl)cc1)C(=O)N[C@H](Cc1cccnc1)C(=O)N[C@@H](CO)C(=O)N[C@@H](Cc1ccc(O)cc1)C(=O)N[C@H](CCCNC(N)=O)C(=O)N[C@@H](CC(C)C)C(=O)N[C@@H](CCCNC(=N)N)C(=O)N1CCC[C@H]1C(=O)N[C@H](C)C(N)=O [cetrorelix, reference compound] (Ac-[d2Nal][dPhe(4-Cl)][d3Pal]SY[dCit]LRP[dA]-NH2) | – | – | ca. 90% |
| O=C(NCc1ncc(C(F)(F)F)cc1Cl)c1ccc2c(c1)C1(CCS(=O)(=O)CC1)[C@@H](C1CC1)N2S(=O)(=O)c1ccc(F)cc1 [Example 3.2, (2R)—N-{[3-chloro-5-(trifluoromethyl)pyridin-2-yl]methyl}-2-cyclopropyl-1-[(4-fluorophenyl)sulfonyl]-1,2,2′,3′,5′,6′-hexahydrospiro[indole-3,4′-thiopyran]-5-carboxamide 1′,1′-dioxide] | 2430 nM | 748 nM | – |
